Measurements as given in ChEMBL document CHEMBL4665764, “Synthesis and Biological Evaluation of Celastrol Derivatives as Potential Immunosuppressive Agents” (J Nat Prod, 2020).

What was measured:
[1] = Cytotoxicity against BALB/c mouse T cell assessed as reduction in cell viability after 48 hrs by CCK8 assay; type: tissue-based, T cell line; settings: BALB/c mouse T cells
[2] = Antiproliferative activity against Con A-induced BALB/c mouse T cell after 48 hrs by CCK8 assay; type: functional, tissue-based, T cell line
[3] = Selectivity index, ratio of CC50 for cytotoxicity against BALB/c mouse T cell to IC50 for antiproliferative activity against Con A-induced BALB/c mouse T cell; set-up: species or system T cell line

| SMILES | CC50 at 48 h [1] [nM] | IC50 [2] [nM] | Ratio CC50/IC50 [3] |
| --- | --- | --- | --- |
| COC(=O)[C@]1(C)CC[C@]2(C)CC[C@]3(C)C4=CC=C5C(=CC(=O)C(O)=C5C)[C@]4(C)CC[C@@]3(C)[C@@H]2C1 [PRISTIMERIN] | 2400 | 1200 | 2 |
| C#CCOC(=O)[C@]1(C)CC[C@]2(C)CC[C@]3(C)C4=CC=C5C(=CC(=O)C(O)=C5C)[C@]4(C)CC[C@@]3(C)[C@@H]2C1 | 1400 | 1120 | 1.3 |
| C#CCOC(=O)[C@]1(C)CC[C@]2(C)CC[C@]3(C)C4=C[C@@H](c5c[nH]c6cc(Cl)ccc56)c5c(cc(OC(C)=O)c(OC(C)=O)c5C)[C@]4(C)CC[C@@]3(C)[C@@H]2C1 | 4100 | ≥ 10000 | – |
| CC1=C(O)C(=O)C=C2C1=CC=C1[C@@]2(C)CC[C@@]2(C)[C@@H]3C[C@](C)(C(=O)OCc4ccccc4)CC[C@]3(C)CC[C@]12C | 1100 | 1060 | 1 |
| CC1=C(O)C(=O)C=C2C1=CC=C1[C@@]2(C)CC[C@@]2(C)[C@@H]3C[C@](C)(C(=O)OCc4cccc(Br)c4)CC[C@]3(C)CC[C@]12C | 1800 | 1070 | 1.7 |
| CC1=C(O)C(=O)C=C2C1=CC=C1[C@@]2(C)CC[C@@]2(C)[C@@H]3C[C@](C)(C(=O)NCCN(C)C)CC[C@]3(C)CC[C@]12C | 1200 | 225 | 5.5 |
| C#CCOC(=O)[C@]1(C)CC[C@]2(C)CC[C@]3(C)C4=C[C@@H](c5c[nH]c6ccccc56)c5c(cc(OC(C)=O)c(OC(C)=O)c5C)[C@]4(C)CC[C@@]3(C)[C@@H]2C1 | ≥ 10000 | ≥ 10000 | – |
| C#CCOC(=O)[C@]1(C)CC[C@]2(C)CC[C@]3(C)C4=C[C@@H](c5c[nH]c6ccc(F)cc56)c5c(cc(OC(C)=O)c(OC(C)=O)c5C)[C@]4(C)CC[C@@]3(C)[C@@H]2C1 | 5600 | ≥ 10000 | – |
| C=CCOC(=O)[C@]1(C)CC[C@]2(C)CC[C@]3(C)C4=CC=C5C(=CC(=O)C(O)=C5C)[C@]4(C)CC[C@@]3(C)[C@@H]2C1 | 1300 | 1180 | 1.1 |
| COCCCOC(=O)[C@]1(C)CC[C@]2(C)CC[C@]3(C)C4=CC=C5C(=CC(=O)C(O)=C5C)[C@]4(C)CC[C@@]3(C)[C@@H]2C1 | 1700 | 994 | 1.7 |
| CC1=C(O)C(=O)C=C2C1=CC=C1[C@@]2(C)CC[C@@]2(C)[C@@H]3C[C@](C)(C(=O)OCC4CCCCC4)CC[C@]3(C)CC[C@]12C | 1300 | 1260 | 1 |
| CC1=C(O)C(=O)C=C2C1=CC=C1[C@@]2(C)CC[C@@]2(C)[C@@H]3C[C@](C)(C(=O)OCc4cccc(C)c4)CC[C@]3(C)CC[C@]12C | 1900 | 1600 | – |
| C#CCOC(=O)[C@]1(C)CC[C@]2(C)CC[C@]3(C)C4=C[C@@H](c5c[nH]c6ccc(Cl)cc56)c5c(cc(OC(C)=O)c(OC(C)=O)c5C)[C@]4(C)CC[C@@]3(C)[C@@H]2C1 | ≥ 10000 | ≥ 10000 | – |
| CCCCNC(=O)[C@]1(C)CC[C@]2(C)CC[C@]3(C)C4=CC=C5C(=CC(=O)C(O)=C5C)[C@]4(C)CC[C@@]3(C)[C@@H]2C1 | 1200 | 63 | 19.3 |
| CCOC(=O)[C@]1(C)CC[C@]2(C)CC[C@]3(C)C4=CC=C5C(=CC(=O)C(O)=C5C)[C@]4(C)CC[C@@]3(C)[C@@H]2C1 | 1400 | 820 | 1.3 |
| CC1=C(O)C(=O)C=C2C1=CC=C1[C@@]2(C)CC[C@@]2(C)[C@@H]3C[C@](C)(C(=O)NCc4ccccc4C)CC[C@]3(C)CC[C@]12C | 1100 | 312 | 3.6 |
| C#CCOC(=O)[C@]1(C)CC[C@]2(C)CC[C@]3(C)C4=C[C@@H](c5c[nH]c6cc(F)ccc56)c5c(cc(OC(C)=O)c(OC(C)=O)c5C)[C@]4(C)CC[C@@]3(C)[C@@H]2C1 | ≥ 10000 | ≥ 10000 | – |
| C#CCOC(=O)[C@]1(C)CC[C@]2(C)CC[C@]3(C)C4=C[C@@H](c5c[nH]c6c(C)cccc56)c5c(cc(OC(C)=O)c(OC(C)=O)c5C)[C@]4(C)CC[C@@]3(C)[C@@H]2C1 | ≥ 10000 | ≥ 10000 | – |
| C#CCOC(=O)[C@]1(C)CC[C@]2(C)CC[C@]3(C)C4=C[C@@H](c5c[nH]c6ccc(OC)cc56)c5c(cc(OC(C)=O)c(OC(C)=O)c5C)[C@]4(C)CC[C@@]3(C)[C@@H]2C1 | ≥ 10000 | ≥ 10000 | – |
| C#CCNC(=O)[C@]1(C)CC[C@]2(C)CC[C@]3(C)C4=CC=C5C(=CC(=O)C(O)=C5C)[C@]4(C)CC[C@@]3(C)[C@@H]2C1 | 1400 | 112 | 16.4 |
| CCCNC(=O)[C@]1(C)CC[C@]2(C)CC[C@]3(C)C4=CC=C5C(=CC(=O)C(O)=C5C)[C@]4(C)CC[C@@]3(C)[C@@H]2C1 | 1100 | 64 | 16.5 |

| SMILES | CC50 at 48 h [1] [nM] | IC50 [2] [nM] | Ratio CC50/IC50 [3] |
| --- | --- | --- | --- |
| CC1=C(O)C(=O)C=C2C1=CC=C1[C@@]2(C)CC[C@@]2(C)[C@@H]3C[C@](C)(C(=O)OCCC(C)C)CC[C@]3(C)CC[C@]12C | 1500 | 1090 | 1.4 |
| CC1=C(O)C(=O)C=C2C1=CC=C1[C@@]2(C)CC[C@@]2(C)[C@@H]3C[C@](C)(C(=O)O)CC[C@]3(C)CC[C@]12C [CELASTROL] | 100 | 83 | 1.5 |
| CCCOC(=O)[C@]1(C)CC[C@]2(C)CC[C@]3(C)C4=CC=C5C(=CC(=O)C(O)=C5C)[C@]4(C)CC[C@@]3(C)[C@@H]2C1 | 1200 | 924 | 1.3 |
| C#CCOC(=O)[C@]1(C)CC[C@]2(C)CC[C@]3(C)C4=C[C@@H](c5c[nH]c6ccc(Br)cc56)c5c(cc(OC(C)=O)c(OC(C)=O)c5C)[C@]4(C)CC[C@@]3(C)[C@@H]2C1 | ≥ 10000 | ≥ 10000 | – |
| CC1=C(O)C(=O)C=C2C1=CC=C1[C@@]2(C)CC[C@@]2(C)[C@@H]3C[C@](C)(C(=O)N4CCCC4)CC[C@]3(C)CC[C@]12C | 1900 | 323 | 3.4 |
| CC1=C(O)C(=O)C=C2C1=CC=C1[C@@]2(C)CC[C@@]2(C)[C@@H]3C[C@](C)(C(=O)OCCCl)CC[C@]3(C)CC[C@]12C | 1100 | 771 | 1.4 |
| CC1=C(O)C(=O)C=C2C1=CC=C1[C@@]2(C)CC[C@@]2(C)[C@@H]3C[C@](C)(C(=O)NC(C)C)CC[C@]3(C)CC[C@]12C | 800 | 83 | 6.9 |
| CC1=C(O)C(=O)C=C2C1=CC=C1[C@@]2(C)CC[C@@]2(C)[C@@H]3C[C@](C)(C(=O)OCCBr)CC[C@]3(C)CC[C@]12C | 1100 | 721 | 1.6 |
| CC1=C(O)C(=O)C=C2C1=CC=C1[C@@]2(C)CC[C@@]2(C)[C@@H]3C[C@](C)(C(=O)OCc4ccccc4Br)CC[C@]3(C)CC[C@]12C | 1800 | 1550 | 1.1 |
| CC1=C(O)C(=O)C=C2C1=CC=C1[C@@]2(C)CC[C@@]2(C)[C@@H]3C[C@](C)(C(=O)On4nnc5ccccc54)CC[C@]3(C)CC[C@]12C | 15100 | 1880 | 8.1 |
| CC1=C(O)C(=O)C=C2C1=CC=C1[C@@]2(C)CC[C@@]2(C)[C@@H]3C[C@](C)(C(=O)NCc4ccccc4)CC[C@]3(C)CC[C@]12C | 800 | 362 | 2.1 |
| CCCCOC(=O)[C@]1(C)CC[C@]2(C)CC[C@]3(C)C4=CC=C5C(=CC(=O)C(O)=C5C)[C@]4(C)CC[C@@]3(C)[C@@H]2C1 | 900 | 739 | 1.2 |
| COCCOC(=O)[C@]1(C)CC[C@]2(C)CC[C@]3(C)C4=CC=C5C(=CC(=O)C(O)=C5C)[C@]4(C)CC[C@@]3(C)[C@@H]2C1 | 1300 | 454 | 2.8 |
| CC1=C(O)C(=O)C=C2C1=CC=C1[C@@]2(C)CC[C@@]2(C)[C@@H]3C[C@](C)(C(=O)OCc4ccc(C(F)(F)F)cc4)CC[C@]3(C)CC[C@]12C | 6700 | 4870 | 1.4 |
| CC1=C(O)C(=O)C=C2C1=CC=C1[C@@]2(C)CC[C@@]2(C)[C@@H]3C[C@](C)(C(=O)OCc4ccc(F)cc4)CC[C@]3(C)CC[C@]12C | 2000 | 1460 | 1.4 |
| C#CCOC(=O)[C@]1(C)CC[C@]2(C)CC[C@]3(C)C4=C[C@@H](c5c[nH]c6ccc(C)cc56)c5c(cc(OC(C)=O)c(OC(C)=O)c5C)[C@]4(C)CC[C@@]3(C)[C@@H]2C1 | ≥ 10000 | ≥ 10000 | – |
| C#CCOC(=O)[C@]1(C)CC[C@]2(C)CC[C@]3(C)C4=C[C@@H](c5c[nH]c6cc(OC)ccc56)c5c(cc(OC(C)=O)c(OC(C)=O)c5C)[C@]4(C)CC[C@@]3(C)[C@@H]2C1 | 3000 | ≥ 10000 | – |
| CC1=C(O)C(=O)C=C2C1=CC=C1[C@@]2(C)CC[C@@]2(C)[C@@H]3C[C@](C)(C(=O)NCc4cccc(C)c4)CC[C@]3(C)CC[C@]12C | 1000 | 294 | 3.4 |
| COC(=O)[C@H](Cc1ccc(O)cc1)NC(=O)[C@]1(C)CC[C@]2(C)CC[C@]3(C)C4=CC=C5C(=CC(=O)C(O)=C5C)[C@]4(C)CC[C@@]3(C)[C@@H]2C1 | 1400 | 205 | 6.9 |
| CCNC(=O)[C@]1(C)CC[C@]2(C)CC[C@]3(C)C4=CC=C5C(=CC(=O)C(O)=C5C)[C@]4(C)CC[C@@]3(C)[C@@H]2C1 | 1100 | 31 | 34.6 |
| CC1=C(O)C(=O)C=C2C1=CC=C1[C@@]2(C)CC[C@@]2(C)[C@@H]3C[C@](C)(C(=O)OCc4ccccc4C)CC[C@]3(C)CC[C@]12C | 1700 | 1040 | 1.6 |
